Article PMC8217011, “Natural brominated phenoxyphenols kill persistent and biofilm-incorporated cells of MRSA and other pathogenic bacteria” (Applied Microbiology and Biotechnology, 2020)
Where “and” joins values, the source holds several entries; their conditions need not be identical. Equal values may be shown once.

Assays:
[1] = system: stationary phase-induced persistent cells of MRSA strain Mu50; test: Persister killing kinetics (CFU plating); format: cell-based, Staphylococcus aureus; details: start 10^8 CFU/mL
Description: For persister killing kinetics, cells were grown overnight until a density of OD600 nm > 5.0 was reached and then washed three times with PBS. Next, cell density was adjusted to 10^8 CFU/mL in 5 mL PBS. […] Analysis was performed as described above.

pre-formed MRSA biofilms = test: Biofilm viability by CFU plating; format: cell-based, Staphylococcus aureus; details: 24 h of treatment, 4× minimal biofilm inhibitory concentration, moxifloxacin 20 μM
Description: Additionally, biofilm viability was quantified by CFU plating. Biofilms were pregrown as described above and treated for 24 h with 4× minimal biofilm inhibitory concentrations as calculated from the Resazurin reduction assay. Biofilms were dispersed by pipetting followed by sonification in a water bath. Dilutions were plated on Mueller-Hinton agar plates and incubated overnight at 37 °C.

[2] = system: actively replicating MRSA strain Mu50; test: Killing kinetics, actively replicating cells (CFU plating); format: cell-based, Staphylococcus aureus; details: MHB, start 10^6 CFU/mL; PPs at 4× MIC, moxifloxacin 20 μM; detection limit 10^2 CFU/mL
Description: S. aureus cells were freshly incubated in MHB until an OD600 nm of approx. 0.6 was reached. Next, the cells were diluted to 10^6 CFU/mL in 5 mL MHB. […] At certain time points (0, 0.5, 1, 3, 6, 8, 24 h), 100 μL was removed from the culture, diluted and plated onto MHA plates. After 24-h incubation, colonies were counted and viability (expressed as colony-forming units per mL (CFU/mL)) was calculated considering the dilution factor.

gram-negative bacteria = test: MIC determination, summary over gram-negative strains; format: cell-based; details: colistin concentration of 0.1 μM (0.12 μg/mL)
Description: (§1) The minimal inhibitory concentration (MIC) has been determined according to the CSLI guidelines (CLSI [2012]). Briefly, in a sterile polystyrene U-bottom 96-well plate, a 2-fold serial dilution ranging from 100 to 0.78 μM of testing compounds has been prepared in 50 μL MHB. A freshly inoculated S. aureus culture was grown until OD600 nm of approx. 0.6 and diluted to 10^6 CFU/mL in MHB. Finally, 50 μL of the latter cell suspension was added to each well and then incubated statically for 18–24 h at 37 °C. MIC was determined using BacTiterGlo ATP assay (Promega, Madison, WI, USA) and Tecan Infinite F200 Pro (Tecan, Männedorf, Switzerland). Moxifloxacin and DMSO were used as positive and negative control, respectively. Sublethal concentrations of colistin (0.1 μM) were used in some experiments to increase the permeability of the gram-negative cell envelope for compound testing. For E. cloacae, a broth microdilution assay was performed using a serial 2-fold dilution in 96-well flat-bottomed plates (Falcon, BD Bioscience, Heidelberg) of both PPs in broth LB medium (Roth, Karlsruhe) at a concentration range of 50–0.024 μM.

[3] = system: Escherichia coli ATCC 25922; test: MIC determination (microbroth dilution); format: cell-based; details: colistin alone
Description: (§2) Cultures were, if not stated differently, incubated at 37 °C with aeration and shaking (150 rpm) in Mueller-Hinton broth (MHB). Bacteria were freshly incubated at the next morning from an overnight pre-culture for actively growing bacteria to an OD600 nm of approx. 0.6. To ensure persistent growth form, the bacteria were grown overnight until a density at OD600 nm > 5.0 was obtained. For biofilm growth, some colonies from a Mueller-Hinton agar (MHA) plate were picked and resuspended in MHB. Cell density has been adjusted to OD600 nm = 0.8, and cells were sown into a flat-bottom 96-well plate to be incubated statically at 37 °C with aeration. Studies were mainly performed with S. aureus Mu50.
as §1

[4] = system: Acinetobacter baumannii ATCC 747; test: MIC determination (microbroth dilution); format: cell-based; details: colistin alone
Description: as §2, §1

CCCCCCCCCCCCCCCCn1cc[n+](Cc2ccccc2)c1C.[I-] [NH125, reference compound]
time until viability reduced to the detection limit ([1]; PPs at 4× MIC, NH125 10 μM, detection limit 10^2 CFU/mL): ~3 h

COc1c(N2C[C@@H]3CCCN[C@@H]3C2)c(F)cc2c(=O)c(C(=O)O)cn(C3CC3)c12 [moxifloxacin, reference compound]
decrease of viability of persistent cells after 24 h ([1]; 3-bromo-PP at 4× MIC, moxifloxacin control, 24 h): did not show any effect | reduction in viable cell counts in biofilms (pre-formed MRSA biofilms): virtually no effect | time until viability reached the detection limit [2]: 3 h

colistin [reference compound]
growth of gram-negative bacteria (gram-negative bacteria): not inhibited | MIC [3]: 0.78 μM and 0.90 μg/mL | MIC [4]: 0.78 μM and 0.90 μg/mL
